According to patent publication US20250129021A1, “SMALL MOLECULE PROTEIN SYNTHESIS MODULATORS” (Interdict Bio, Inc., priority 2023, published 2025):
Like-named read-outs stand apart in the source and are kept apart here.

Legend:
Assay type in all cases: biochemical
MCL-1 = assay: In vitro transcription-translation (IVTT) assay, MCL-1 reporter; conditions: HeLa S3 lysate, read-out: MCL1 IC50
In short: (§1)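 Reporter: mCherry, P2A, then 3×FLAG-target peptide-sfGFP fusion, IRES-initiated; HeLa S3 lysate IVTT; cpd dilutions 30 μM−0.1 μM half-log in 100% DMSO (dilution-plate conc); DNA added last; 2 h, 30° C; PBS quench.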

MYC = assay: In vitro transcription-translation (IVTT) assay, MYC reporter; conditions: IVTT assay, HeLa S3 lysate, MYC reporter, normalized sfGFP/mCherry ratio; half-log dilutions 30 μM-0.1 μM, 2 hrs at 30° C.
In short: as §1

CCNE1 [1] = assay: In vitro transcription-translation (IVTT) assay, CCNE1 reporter; conditions: HeLa S3 lysate, sfGFP/mCherry ratio
Procedure: (§2) In vitro transcription-translation assay setup: Each assay includes a master mix containing lysate and shared components, a 96-well plate containing compound titrations for testing, a 96-well DNA plate with reporter constructs to be tested, 96-well skirted PCR plates, and 96-well flat-bottom, black, fluorescent assay plates. Reaction materials setup: (A) Master mix—15 mL conical tube (3 mL of HeLa S3 Lysate described above; 0.6 mL of ThermoFisher Accessory Proteins (#88882); 1.2 ml of ThermoFisher Reaction Mix (#88882); 0.54 mL of nuclease-free Water); (B) 96-Well Master Mix+Compound Plate (Half-log dilutions (30 μM−0.1 μM) of 4 compounds of interest are prepared in 100% DMSO); 96-Well DNA Plate (Five DNA constructs are plated into single columns within the plate. Row 1 of the column contains nuclease free H2O, all other wells contain 110 ng/μL plasmid DNA). Reactions are started by mixing 155 μL of master mix and 3.5 μL of compound serial dilutions, then 9.1 μL of master mix+compound mixture is aliquoted across 5 96-well plates. Reactions begin with final addition of 2 μL of DNA for a 11.1 μL reaction volume in each well. The entire plate is sealed, and incubated for 2 hrs at 30° C. After 2 hrs, quench the assay using 45 μL of PBS, and transfer 50 μL to a flat-bottom black microplate Quantify the sfGFP and mCherry signals from each well on each plate, taking 3 reads of each plate, and perform data analysis below.
(§3) In vitro transcription-translation assay data analysis: Each plate is read three times in channels for both sfGFP and mCherry signals. The average signal across these 3 reads is then calculated for further analysis. Control wells containing no DNA reporter are subtracted from reporter wells in the same column to remove auto-fluorescence of the lysate. Then, the ratio of sfGFP/mCherry is calculated per well, and these ratios are averaged across the triplicate experiments on the same plate. Finally, the ratio of each titration concentration is normalized to the no drug control to create the normalized stalling metric. The error on this measurement is determined by propagating error through the averaging and normalization steps. Values are plotted and fit for IC50 determination for each test sequence and titration of compound.

CCND1 = assay: In vitro transcription-translation (IVTT) assay, CCND1 reporter; conditions: IVTT, HeLa S3 lysate, 2 hrs at 30° C.
In short: as §1

CCNTB1 = assay: In vitro transcription-translation (IVTT) assay, CCNTB1 reporter; conditions: HeLa S3 lysate, 2 hrs at 30° C.
In short: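 IC50 fitted from the sfGFP/mCherry fluorescence ratio, normalized to no-drug control after no-DNA background subtraction. Reactions ran 2 h at 30° C in HeLa S3 cell lysate with reporter plasmid DNA and half-log compound titrations (30 μM−0.1 μM, in DMSO).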

CCNE1 [2] = assay: In vitro transcription-translation (IVTT) assay, CCNE1 reporter; conditions: HeLa S3 lysate, 2 hrs at 30° C.
Procedure: Each preparation takes 8 cell pellets (4 ml packed volume each, approximately 1.0×10^9 cells per pellet). Thaw cell pellets from −80° C. on ice for 90 mins. Lay pellets horizontally on top of the ice and rotate every 30 mins to ensure even thawing. Once thawed, add 4 mL of cold lysis buffer to each pellet, and using a serological pipet, gently pipet up and down to break up clumps. Incubate resuspended cells in ice for an additional 30 mins (plunged into ice). During 30 min incubation, rinse and RNase-zap (Ambion) glass dounces (use loose pestle “A”), gently dry and place on ice until needed. Prepare RNase-free Eppendorf tubes for spinning and for batch storage. Add batch labels to 1.5-1.7 mL RNase-free microcentrifuge tubes (labeling scheme below). Each batch will have an extra 1.5-1.7 mL RNase-free microcentrifuge tube for 40 μL of lysate, label the top of this tube (labeling scheme below). After 30 min incubation, transfer all 8 mL of cell pellet to dounce. Cell lysis is complete after douncing 100 times. Aliquot cell lysis into 1.5-1.7 mL temporary-microcentrifuge tubes. Place tubes in centrifuge with “fins” out, and spin at 1,200×g for 5 mins. After the first spin use a 1 mL pipet to resuspend each tube and repeat spin. This acts as an additional lysis step, is more vigorous and increases lysate yield. During second spin get liquid N2 and a fresh conical tube on ice. After spin is complete, transfer supernatant (lysate) from microcentrifuge tubes into the 50 mL conical tube and keep on ice. Repeat steps 10-14 for all other cell pellets until completed. Once all cell lysate has been transferred to the 50 mL conical tube pipet to mix so the solution is homogenous. Transfer 1 mL of lysate into batch-labeled microcentrifuge tubes and flash freeze in liquid nitrogen. Be sure to pipet up and down to mix throughout transfer step. Place all tubes in the […] for long-term storage.
as §2
as §3, with “The error on this measurement is determined by propagating error through the averaging and normalization steps. Values are plotted and fit for IC50 determination for each test sequence and titration of compound.” left out

[3] = IVTT assay, sfGFP/mCherry ratio

| IC50 (MCL-1; [3]) [µM] | IC50 (CCNE1 [1]) [µM] | IC50 (CCND1) [µM] | IC50 (CCNTB1) [µM] | IC50 (CCNE1 [2]) [µM] | IC50 (MCL-1; IVTT, 2 hrs at 30° C.) [µM] | SMILES | IC50 (MYC) [µM] |
| --- | --- | --- | --- | --- | --- | --- | --- |
| < 10 | < 10 | – | – | – | – | O=C(NCC[C@@H]1CCCN1)O[C@@H]1[C@@H](O)CN[C@@H]1Cc1ccc(-c2cnn(C(F)F)c2)cc1 [V193080, (2R,3S,4S)-2-(4-(1-(difluoromethyl)-1H-pyrazol-4-yl)benzyl)-4-hydroxypyrrolidin-3-yl (2-((S)-pyrrolidin-2-yl)ethyl)carbamate] | < 10 |
| – | – | 10 to 20 | < 10 | 10 to 20 | < 10 | COc1ccc(C[C@H]2NC[C@H](O)[C@H]2OC(=O)NC[C@H]2CCN(c3ncccn3)C2)cc1 [V188171, (2R,3S,4S)-4-hydroxy-2-[(4-methoxyphenyl)methyl]pyrrolidin-3-yl N-{[(3R)-1-(pyrimidin-2-yl)pyrrolidin-3-yl]methyl}carbamate] | 10 to 20 |
| < 10 | < 10 | – | – | – | – | O=C(NCC[C@@H]1CCNC1)O[C@@H]1[C@@H](O)CN[C@@H]1Cc1ccc(-c2cnco2)cc1 [V193011, (2R,3S,4S)-4-hydroxy-2-{[4-(1,3-oxazol-5-yl)phenyl]methyl}pyrrolidin-3-yl N-{2-[(3S)-pyrrolidin-3-yl]ethyl}carbamate] | < 10 |
| – | – | < 10 | < 10 | < 10 | < 10 | COc1ccc(C[C@H]2NC[C@H](O)[C@H]2OC(=O)NCc2ccc3cn[nH]c3c2)cc1 [V188151, (2R,3S,4S)-4-hydroxy-2-[(4-methoxyphenyl)methyl]pyrrolidin-3-yl N-(1H-indazol-6-ylmethyl)carbamate] | < 10 |
| – | – | < 10 | < 10 | < 10 | < 10 | O=C(NCc1cc[nH]c(=O)c1)O[C@@H]1[C@@H](O)CN[C@@H]1Cc1ccc(Cl)cc1 [V188274, (2R,3S,4S)-2-[(4-chlorophenyl)methyl]-4-hydroxypyrrolidin-3-yl N-[(2-oxo-1H-pyridin-4-yl)methyl]carbamate] | < 10 |
| – | – | < 10 | < 10 | < 10 | < 10 | O=C(NCc1cnoc1)O[C@@H]1[C@@H](O)CN[C@@H]1Cc1ccc(Cl)cc1 [V188289, (2R,3S,4S)-2-[(4-chlorophenyl)methyl]-4-hydroxypyrrolidin-3-yl N-(1,2-oxazol-4-ylmethyl)carbamate] | < 10 |
| – | – | 10 to 20 | < 10 | < 10 | 10 to 20 | COc1ccc(C[C@H]2NC[C@H](O)[C@H]2OC(=O)NCCn2ccnc2N)cc1 [V188086, (2R,3S,4S)-4-hydroxy-2-[(4-methoxyphenyl)methyl]pyrrolidin-3-yl N-[2-(2-aminoimidazole-1-yl)ethyl]carbamate] | 10 to 20 |
| – | – | < 10 | < 10 | < 10 | < 10 | O=C(NC[C@H]1CCOC1)O[C@@H]1[C@@H](O)CN[C@@H]1Cc1ccc(Cl)cc1 [V188287, (2R,3S,4S)-2-[(4-chlorophenyl)methyl]-4-hydroxypyrrolidin-3-yl N-[(3R)-oxolan-3-ylmethyl]carbamate] | < 10 |
| – | – | 10 to 20 | < 10 | 10 to 20 | < 10 | COc1ccc(C[C@H]2NC[C@H](O)[C@H]2OC(=O)NCCC2CCNCC2)cc1 [V188229, (2R,3S,4S)-4-hydroxy-2-[(4-methoxyphenyl)methyl]pyrrolidin-3-yl N-[2-(piperidin-4-yl)ethyl]carbamate] | < 10 |
| – | – | > 30 | > 30 | > 30 | – | COc1ccc(C[C@H]2NC[C@H](O)[C@H]2OC(=O)NCC2CCNCC2)cc1 [V188172, (2R,3S,4S)-4-hydroxy-2-[(4-methoxyphenyl)methyl]pyrrolidin-3-yl N-(piperidin-4-ylmethyl)carbamate] | > 30 |
| – | – | > 30 | < 10 | < 10 | – | O=C(NC[C@H]1CCNC1)O[C@@H]1[C@@H](O)CN[C@@H]1Cc1ccc(Cl)cc1 [V188188, (2R,3S,4S)-2-[(4-chlorophenyl)methyl]-4-hydroxypyrrolidin-3-yl N-[(3S)-pyrrolidin-3-ylmethyl]carbamate] | > 30 |
| – | – | > 30 | < 10 | 10 to 20 | – | COc1ccc(C[C@H]2NC[C@H](O)[C@H]2OC(=O)NCCn2cc[nH]c2=O)cc1 [V188088, (2R,3S,4S)-4-hydroxy-2-[(4-methoxyphenyl)methyl]pyrrolidin-3-yl N-[2-(2-oxo-3H-imidazol-1-yl)ethyl]carbamate] | 20 to 30 |
| – | – | > 30 | > 30 | > 30 | – | COc1ccc(C[C@H]2NC[C@H](O)[C@H]2OC(=O)NCc2cc(N3CCCC3)nc(N3CCCC3)c2)cc1 [V188228, (2R,3S,4S)-4-hydroxy-2-[(4-methoxyphenyl)methyl]pyrrolidin-3-yl N-{[2,6-bis(pyrrolidin-1-yl)pyridin-4-yl]methyl}carbamate] | > 30 |

| SMILES | IC50 (MCL-1; [3]) [µM] | IC50 (CCNE1 [1]) [µM] | IC50 (CCND1) [µM] | IC50 (CCNTB1) [µM] | IC50 (CCNE1 [2]) [µM] | IC50 (MCL-1; IVTT, 2 hrs at 30° C.) [µM] | IC50 (MYC) [µM] |
| --- | --- | --- | --- | --- | --- | --- | --- |
| COc1ccc(C[C@H]2NC[C@H](O)[C@H]2OC(=O)NCc2ccnc(N3CCC3)c2)cc1 [V188225, (2R,3S,4S)-4-hydroxy-2-[(4-methoxyphenyl)methyl]pyrrolidin-3-yl N-{[2-(azetidin-1-yl)pyridin-4-yl]methyl}carbamate] | – | – | < 10 | < 10 | < 10 | < 10 | < 10 |
| COc1ccc(C[C@H]2NC[C@H](O)[C@H]2OC(=O)NCc2cc(N3CCC3)nc(N3CCC3)c2)cc1 [V188227, (2R,3S,4S)-4-hydroxy-2-[(4-methoxyphenyl)methyl]pyrrolidin-3-yl N-{[2,6-bis(azetidin-1-yl)pyridin-4-yl]methyl}carbamate] | – | – | 20 to 30 | < 10 | 20 to 30 | – | 20 to 30 |
| COc1ccc(C[C@H]2NC[C@H](O)[C@H]2OC(=O)NCCc2ccc(S(=O)(=O)F)cc2)cc1 [V188175, (2R,3S,4S)-4-hydroxy-2-[(4-methoxyphenyl)methyl]pyrrolidin-3-yl N-{2-[4-(fluorosulfonyl)phenyl]ethyl}carbamate] | – | – | > 30 | < 10 | 10 to 20 | – | 10 to 20 |
